Reference: the supplement of paper PMC10307832

Tests used:
Assay in all cases: relative viability (nuclei count vs DMSO), 5 days (fraction); higher = more cells survive
MK-2206 + Pictilisib = compound: NC1(c2ccc(-c3nc4ccn5c(=O)[nH]nc5c4cc3-c3ccccc3)cc2)CCC1 [MK-2206] + CS(=O)(=O)N1CCN(Cc2cc3nc(-c4cccc5[nH]ncc45)nc(N4CCOCC4)c3s2)CC1 [Pictilisib] (partner 1 µM)
Summary of the method: (§1)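 Lung cancer cell lines in 1536-well plates got either a single drug or a fixed anchor-drug dose together with five library-drug doses (not always all listed) in √10 steps, by pin tool, on the day after seeding. Nuclei were counted after 5 days, and relative viability is the treated-to-vehicle ratio of nuclei counts. Values are medians of duplicate plates.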

Pictilisib + Crizotinib = compound: CS(=O)(=O)N1CCN(Cc2cc3nc(-c4cccc5[nH]ncc45)nc(N4CCOCC4)c3s2)CC1 [Pictilisib] + C[C@@H](Oc1cc(-c2cnn(C3CCNCC3)c2)cnc1N)c1c(Cl)ccc(F)c1Cl [Crizotinib] (partner 1 µM)
Summary of the method: as §1

Pictilisib + Alpelisib = compound: CS(=O)(=O)N1CCN(Cc2cc3nc(-c4cccc5[nH]ncc45)nc(N4CCOCC4)c3s2)CC1 [Pictilisib] + Cc1nc(NC(=O)N2CCC[C@H]2C(N)=O)sc1-c1ccnc(C(C)(C)C(F)(F)F)c1 [Alpelisib] (partner 2 µM)
Summary of the method: as §1

Pictilisib + Tozasertib = compound: CS(=O)(=O)N1CCN(Cc2cc3nc(-c4cccc5[nH]ncc45)nc(N4CCOCC4)c3s2)CC1 [Pictilisib] + Cc1cc(Nc2cc(N3CCN(C)CC3)nc(Sc3ccc(NC(=O)C4CC4)cc3)n2)n[nH]1 [Tozasertib] (partner 0.1 µM)
Summary of the method: as §1

MK-2206 + OSI-027 = compound: NC1(c2ccc(-c3nc4ccn5c(=O)[nH]nc5c4cc3-c3ccccc3)cc2)CCC1 [MK-2206] + COc1cccc2cc(-c3nc([C@H]4CC[C@H](C(=O)O)CC4)n4ncnc(N)c34)[nH]c12 [OSI-027] (partner 0.5 µM)
Summary of the method: as §1

| Cell Line | relative viability (MK-2206 + Pictilisib; first compound 0.01 µM) | relative viability (MK-2206 + Pictilisib; first compound 0.03162 µM) | relative viability (MK-2206 + Pictilisib; first compound 0.3162 µM) | relative viability (MK-2206 + Pictilisib; first compound 1 µM) | relative viability (Pictilisib + Crizotinib; first compound 0.02 µM) | relative viability (Pictilisib + Crizotinib; first compound 0.06325 µM) | relative viability (Pictilisib + Crizotinib; first compound 0.6325 µM) | relative viability (Pictilisib + Crizotinib; first compound 2 µM) | relative viability (Pictilisib + Alpelisib; first compound 0.02 µM) | relative viability (Pictilisib + Alpelisib; first compound 0.06325 µM) | relative viability (Pictilisib + Alpelisib; first compound 0.6325 µM) | relative viability (Pictilisib + Alpelisib; first compound 2 µM) | relative viability (Pictilisib + Tozasertib; first compound 0.02 µM) | relative viability (Pictilisib + Tozasertib; first compound 0.06325 µM) | relative viability (Pictilisib + Tozasertib; first compound 0.6325 µM) | relative viability (Pictilisib + Tozasertib; first compound 2 µM) | relative viability (MK-2206 + OSI-027; first compound 0.01 µM) | relative viability (MK-2206 + OSI-027; first compound 0.03162 µM) | relative viability (MK-2206 + OSI-027; first compound 0.3162 µM) | relative viability (MK-2206 + OSI-027; first compound 1 µM) |
| --- | --- | --- | --- | --- | --- | --- | --- | --- | --- | --- | --- | --- | --- | --- | --- | --- | --- | --- | --- | --- |
| ABC-1 | 0.629 | 0.728 | 0.721 | 0.701 | 0.96 | 1.2 | 1.2 | 0.507 | 1.1 | 1.04 | 0.995 | 0.809 | 0.187 | 0.135 | 0.158 | 0.168 | 0.552 | 0.494 | 0.381 | 0.379 |
| RERF-LC-KJ | 0.586 | 0.481 | 0.553 | 0.445 | 0.845 | 0.875 | 0.816 | 0.635 | 0.784 | 0.712 | 0.697 | 0.574 | 0.5 | 0.529 | 0.477 | 0.352 | 0.647 | 0.531 | 0.417 | 0.381 |
| LU99A | 0.327 | 0.314 | 0.261 | 0.289 | 0.56 | 0.545 | 0.44 | 0.346 | 0.461 | 0.61 | 0.413 | 0.287 | 0.338 | 0.292 | 0.262 | 0.163 | 0.318 | 0.335 | 0.219 | 0.283 |
| NCI-H650 | 0.804 | 0.901 | 0.87 | 0.81 | 0.762 | 0.712 | 0.629 | 0.642 | 1.05 | 1.15 | 1 | 0.888 | 0.733 | 0.76 | 0.66 | 0.478 | 0.476 | 0.509 | 0.417 | 0.415 |
| NCI-H2347 | 0.384 | 0.67 | 0.634 | 0.652 | 0.695 | 0.496 | 0.592 | 0.545 | 1.1 | 1.09 | 0.912 | 0.873 | 0.512 | 0.517 | 0.462 | 0.285 | 0.384 | 0.375 | 0.413 | 0.277 |
| HARA | 0.388 | 0.395 | 0.399 | 0.357 | 1.05 | 1.15 | 0.972 | 0.722 | 0.766 | 0.888 | 0.768 | 0.494 | 0.127 | 0.107 | 0.0682 | 0.0525 | 0.536 | 0.564 | 0.304 | 0.194 |
| NCI-H2228 | 0.356 | 0.455 | 0.198 | 0.297 | 0.437 | 0.473 | 0.311 | 0.168 | 0.674 | 0.665 | 0.507 | 0.35 | 0.272 | 0.211 | 0.169 | 0.0908 | 0.69 | 0.446 | 0.271 | 0.214 |
| EKVX | 0.415 | 0.447 | 0.424 | 0.445 | 0.898 | 1.15 | 0.801 | 0.493 | 0.913 | 0.882 | 0.761 | 0.339 | 0.369 | 0.324 | 0.317 | 0.215 | 0.777 | 0.707 | 0.646 | 0.59 |
| HCC-827 | 0.982 | 1.11 | 0.899 | 1.01 | 0.901 | 0.991 | 0.921 | 0.548 | 1.02 | 0.829 | 0.892 | 0.518 | 0.436 | 0.441 | 0.312 | 0.2 | 0.78 | 0.871 | 0.655 | 0.391 |
| NCI-H1755 | 0.47 | 0.48 | 0.36 | 0.4 | 0.848 | 0.829 | 0.827 | 0.546 | 0.924 | 0.939 | 0.892 | 0.506 | 0.548 | 0.605 | 0.475 | 0.356 | 0.76 | 0.723 | 0.509 | 0.6 |
| NCI-H661 | 0.431 | 0.422 | 0.511 | 0.312 | – | 1.01 | 1.24 | 0.729 | 0.598 | 0.794 | 0.579 | 0.373 | 0.345 | 0.354 | 0.4 | 0.396 | 0.729 | 0.659 | 0.563 | 0.584 |
| NCI-H1944 | 0.361 | 0.346 | 0.361 | 0.34 | 1.11 | 0.962 | 0.933 | 0.603 | 0.817 | 0.776 | 0.732 | 0.472 | 0.254 | 0.234 | 0.195 | 0.148 | 0.478 | 0.447 | 0.361 | 0.326 |
| NCI-H23 | 0.528 | 0.491 | 0.444 | 0.464 | 0.424 | 0.592 | 0.344 | 0.354 | 0.728 | 0.77 | 0.827 | 0.487 | 0.326 | 0.413 | 0.294 | 0.35 | 0.646 | 0.503 | 0.455 | 0.337 |
| HCC-366 | 0.19 | 0.124 | 0.126 | 0.12 | 0.493 | 0.697 | 0.251 | 0.0577 | 0.452 | 0.386 | 0.335 | 0.174 | 0.19 | 0.0882 | 0.0364 | 0.0156 | 0.927 | 0.962 | 0.569 | 0.44 |
| LCLC-97TM1 | 0.231 | 0.259 | 0.131 | 0.164 | 0.236 | 0.277 | 0.317 | 0.159 | 0.268 | 0.353 | 0.265 | 0.176 | 0.251 | 0.211 | 0.0992 | 0.0885 | 0.698 | 0.498 | 0.249 | 0.361 |
| EMC-BAC-2 | 0.54 | 0.574 | 0.515 | 0.441 | 0.779 | 0.811 | 0.691 | 0.601 | 0.754 | 0.766 | 0.721 | 0.577 | 0.304 | 0.31 | 0.297 | 0.242 | 0.415 | 0.364 | 0.287 | 0.313 |
